Assay results reported in ChEMBL document CHEMBL1154532, “Antibacterial alkoxybenzamide inhibitors of the essential bacterial cell division protein FtsZ” (2009).
Values after ≈ are worked out from the molar mass of the structure shown.

Tests used:
Bacillus subtilis = test: Antibacterial activity against Bacillus subtilis 168; type: functional
[1] = target: T1, Cell division protein FtsZ (Bacillus subtilis (strain 168)) (UniProt P17865); test: Inhibition of FtsZ-mediated cell division in Bacillus subtilis 168 assessed as drug concentration required to produce filamentation
T1 sequence (whole entry): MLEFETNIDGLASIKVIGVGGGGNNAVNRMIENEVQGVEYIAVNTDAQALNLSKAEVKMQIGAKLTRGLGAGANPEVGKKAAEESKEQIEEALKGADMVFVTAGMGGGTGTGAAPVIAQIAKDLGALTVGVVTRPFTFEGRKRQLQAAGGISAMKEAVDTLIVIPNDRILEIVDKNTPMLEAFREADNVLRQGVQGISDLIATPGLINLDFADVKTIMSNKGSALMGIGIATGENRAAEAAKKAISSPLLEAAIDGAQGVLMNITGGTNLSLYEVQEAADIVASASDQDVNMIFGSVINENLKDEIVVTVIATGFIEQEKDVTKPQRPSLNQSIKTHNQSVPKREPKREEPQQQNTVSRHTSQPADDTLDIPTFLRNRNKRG

Staphylococcus aureus [2] = test: Antibacterial activity against Staphylococcus aureus ATCC 29213; type: functional
[3] = test system: Staphylococcus epidermidis; test: Antibacterial activity against Staphylococcus epidermidis ATCC 12228; type: functional
Staphylococcus aureus [4] = test: Antibacterial activity against Staphylococcus aureus ATCC 601055 with FtsZ P300R point mutation; type: functional
Staphylococcus aureus [5] = test: Antibacterial activity against methicillin-resistant Staphylococcus aureus ATCC 43300; type: functional
Staphylococcus aureus [6] = test: Antibacterial activity against […] Staphylococcus aureus ATCC 29213; type: functional
Staphylococcus aureus [7] = test: Antibacterial activity against methicillin-susceptible Staphylococcus aureus ATCC 25923; type: functional
Staphylococcus aureus [8] = test: Antibacterial activity against methicillin-resistant Staphylococcus aureus ATCC 607004; type: functional
Staphylococcus aureus [9] = test: Antibacterial activity against methicillin-resistant Staphylococcus aureus ATCC 700698; type: functional
Staphylococcus aureus [10] = test: Antibacterial activity against methicillin-susceptible Staphylococcus aureus ATCC 601055; type: functional
Staphylococcus aureus [11] = test: Antibacterial activity against methicillin-susceptible Staphylococcus aureus ATCC 19636; type: functional
Staphylococcus aureus [12] = test: Antibacterial activity against Staphylococcus aureus ATCC 601055 with FtsZ […] point mutation; type: functional
[13] = target: T2, Cell division protein FtsZ (Staphylococcus aureus) (UniProt P0A031); test: Inhibition of FtsZ-mediated cell division in Staphylococcus aureus ATCC 29213 assessed as drug concentration required to produce ballooning
T2 sequence (whole entry): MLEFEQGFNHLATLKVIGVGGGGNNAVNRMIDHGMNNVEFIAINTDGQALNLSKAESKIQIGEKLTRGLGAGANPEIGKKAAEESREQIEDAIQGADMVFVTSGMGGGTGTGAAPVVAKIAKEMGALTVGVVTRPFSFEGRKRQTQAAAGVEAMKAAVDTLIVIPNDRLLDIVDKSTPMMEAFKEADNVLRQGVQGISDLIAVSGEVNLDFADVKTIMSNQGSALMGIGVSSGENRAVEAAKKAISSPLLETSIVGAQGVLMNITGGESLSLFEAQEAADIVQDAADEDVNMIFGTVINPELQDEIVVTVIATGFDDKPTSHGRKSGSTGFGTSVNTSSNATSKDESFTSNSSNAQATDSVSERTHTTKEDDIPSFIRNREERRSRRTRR

## CCCCCCCCOc1cccc(C(N)=O)c1
Bacillus subtilis
  MIC: 1 µg/mL (≈ 4.01 µM)
[1]
  Activity: 0.37 µg/mL
Staphylococcus aureus [2]
  MIC: 4 µg/mL (≈ 16 µM)

## COc1ccc(F)c(C(N)=O)c1Cl
Bacillus subtilis
  MIC: > 4000 µg/mL
[1]
  Activity: 2050 µg/mL

## CCCCCCCCCCCOc1cccc(C(N)=O)c1
Bacillus subtilis
  MIC: 4 µg/mL (≈ 13.7 µM)
[1]
  Activity: 1 µg/mL
Staphylococcus aureus [2]
  MIC: > 256 µg/mL

## NC(=O)c1cccc(O)c1
Bacillus subtilis
  MIC: > 4000 µg/mL
[1]
  Activity: 3000 µg/mL

## COc1cccc(C(N)=O)c1F
Bacillus subtilis
  MIC: 512 µg/mL (≈ 3030 µM)
[1]
  Activity: 128 µg/mL
Staphylococcus aureus [2]
  MIC: 512 µg/mL (≈ 3030 µM)

## COc1ccc(Cl)c(C(N)=O)c1F
Bacillus subtilis
  MIC: 1020 µg/mL (≈ 5030 µM)
[1]
  Activity: 256 µg/mL

## CCCCCCOc1cccc(C(N)=O)c1
[3]
  MIC: 32 µg/mL (≈ 145 µM)
Staphylococcus aureus [4]
  MIC: > 128 µg/mL
Staphylococcus aureus [5]
  MIC: 16 µg/mL (≈ 72.3 µM)
Staphylococcus aureus [6]
  MIC: 16 µg/mL (≈ 72.3 µM)
Staphylococcus aureus [7]
  MIC: 16 µg/mL (≈ 72.3 µM)
Staphylococcus aureus [8]
  MIC: 32 µg/mL (≈ 145 µM)
Staphylococcus aureus [9]
  MIC: 32 µg/mL (≈ 145 µM)
Staphylococcus aureus [10]
  MIC: 32 µg/mL (≈ 145 µM)
Bacillus subtilis
  MIC: 16 µg/mL (≈ 72.3 µM)
[1]
  Activity: 8 µg/mL
Staphylococcus aureus [2]
  MIC: 16 µg/mL (≈ 72.3 µM)
Staphylococcus aureus [11]
  MIC: 16 µg/mL (≈ 72.3 µM)
Staphylococcus aureus [12]
  MIC: > 128 µg/mL

## COc1ccc(C(N)=O)cc1OC
Bacillus subtilis
  MIC: > 4000 µg/mL

## COc1cccc(C(N)=O)c1OC
Bacillus subtilis
  MIC: > 4000 µg/mL

## COc1cccc(CN)c1
Bacillus subtilis
  MIC: 250 µg/mL (≈ 1820 µM)

## Cc1cccc(C(N)=O)c1
Bacillus subtilis
  MIC: > 2000 µg/mL

## CCCOc1cccc(C(N)=O)c1
Bacillus subtilis
  MIC: 500 µg/mL (≈ 2790 µM)
[1]
  Activity: 375 µg/mL
Staphylococcus aureus [2]
  MIC: 256 µg/mL (≈ 1430 µM)

## COc1cc(C(N)=O)ccc1[N+](=O)[O-]
Bacillus subtilis
  MIC: > 4000 µg/mL

## COc1ccc(C(N)=O)cc1
Bacillus subtilis
  MIC: > 4000 µg/mL

## C/C(=C\C(=O)OCCCCCCCCC(=O)O)C[C@@H]1OC[C@H](C[C@@H]2O[C@H]2[C@@H](C)[C@H](C)O)[C@@H](O)[C@H]1O [MUPIROCIN]
Staphylococcus aureus [2]
  MIC: 0.12 µg/mL (≈ 0.24 µM)

## CCCCCCCCCOc1ccc(F)c(C(N)=O)c1
[13]
  Activity: 2 µg/mL
Bacillus subtilis
  MIC: 1 µg/mL (≈ 3.55 µM)
[1]
  Activity: 1 µg/mL
Staphylococcus aureus [2]
  MIC: 8 µg/mL (≈ 28.4 µM)

## O=C(N[C@H](CO)[C@H](O)c1ccc([N+](=O)[O-])cc1)C(Cl)Cl [CHLORAMPHENICOL]
Staphylococcus aureus [2]
  MIC: 4 µg/mL (≈ 12.4 µM)

## COc1cccc(C(=O)O)c1
Bacillus subtilis
  MIC: > 4000 µg/mL

## CCCCCCCCCOc1cccc(C(N)=O)c1
Staphylococcus aureus [4]
  MIC: > 128 µg/mL
Staphylococcus aureus [10]
  MIC: 2 µg/mL (≈ 7.59 µM)
Bacillus subtilis
  MIC: 0.5 µg/mL (≈ 1.9 µM)
[1]
  Activity: 0.18 µg/mL
Staphylococcus aureus [2]
  MIC: 2 µg/mL (≈ 7.59 µM)
Staphylococcus aureus [12]
  MIC: > 128 µg/mL

## COc1ccc([N+](=O)[O-])c(C(N)=O)c1
Bacillus subtilis
  MIC: > 4000 µg/mL

## COc1cccc(C(=O)NO)c1
Bacillus subtilis
  MIC: 4000 µg/mL (≈ 23900 µM)

## COc1cccc(C(N)=S)c1
Bacillus subtilis
  MIC: 2000 µg/mL (≈ 12000 µM)

## COc1ccc(F)c(C(N)=O)c1
Bacillus subtilis
  MIC: 800 µg/mL (≈ 4730 µM)

## CCCCCOc1cccc(C(N)=O)c1
Bacillus subtilis
  MIC: 32 µg/mL (≈ 154 µM)
[1]
  Activity: 24 µg/mL
Staphylococcus aureus [2]
  MIC: 32 µg/mL (≈ 154 µM)

## CC(=O)O[C@H]1C[C@@]2(C)[C@@H](C[C@@H](O)[C@H]3[C@@]4(C)CC[C@@H](O)[C@@H](C)[C@@H]4CC[C@@]32C)/C1=C(\CCC=C(C)C)C(=O)O [FUSIDIC ACID]
Staphylococcus aureus [2]
  MIC: 0.06 µg/mL (≈ 0.116 µM)

## COc1cccc(CC(N)=O)c1
Bacillus subtilis
  MIC: > 4000 µg/mL

## COc1cccc(C(N)=O)c1C
Bacillus subtilis
  MIC: > 4000 µg/mL

## COc1ccc(OC)c(C(N)=O)c1
Bacillus subtilis
  MIC: > 4000 µg/mL

## CCCCCCCCCOc1cccc(C(N)=O)c1F
[13]
  Activity: 0.5 µg/mL
Bacillus subtilis
  MIC: 0.125 µg/mL (≈ 0.444 µM)
[1]
  Activity: 0.125 µg/mL
Staphylococcus aureus [2]
  MIC: 0.5 µg/mL (≈ 1.78 µM)

## CCOc1cccc(C(N)=O)c1
Bacillus subtilis
  MIC: 2000 µg/mL (≈ 12100 µM)
[1]
  Activity: 500 µg/mL
Staphylococcus aureus [2]
  MIC: 1020 µg/mL (≈ 6200 µM)

## CCCCCCCCCCOc1cccc(C(N)=O)c1
Bacillus subtilis
  MIC: 1 µg/mL (≈ 3.6 µM)
[1]
  Activity: 0.5 µg/mL
Staphylococcus aureus [2]
  MIC: 64 µg/mL (≈ 231 µM)

## COc1cc(OC)cc(C(N)=O)c1
Bacillus subtilis
  MIC: > 4000 µg/mL

## CSc1cccc(C(N)=O)c1
Bacillus subtilis
  MIC: > 4000 µg/mL

## CNc1cccc(C(N)=O)c1
Bacillus subtilis
  MIC: > 4000 µg/mL

## NC(=O)c1cccc(OC(F)(F)F)c1
Bacillus subtilis
  MIC: > 4000 µg/mL

## CCCCCCCCCCCCOc1cccc(C(N)=O)c1
[1]
  Activity: > 128 µg/mL
Staphylococcus aureus [2]
  MIC: > 256 µg/mL

## COc1cccc(C(N)=O)c1
[3]
  MIC: 4100 µg/mL (≈ 27100 µM)
Staphylococcus aureus [4]
  MIC: > 8000 µg/mL
Staphylococcus aureus [5]
  MIC: 4100 µg/mL (≈ 27100 µM)
Staphylococcus aureus [6]
  MIC: 2050 µg/mL (≈ 13500 µM)
Staphylococcus aureus [7]
  MIC: 4100 µg/mL (≈ 27100 µM)
Staphylococcus aureus [8]
  MIC: 4100 µg/mL (≈ 27100 µM)
Staphylococcus aureus [9]
  MIC: 4100 µg/mL (≈ 27100 µM)
Staphylococcus aureus [10]
  MIC: 4000 µg/mL (≈ 26500 µM)
Bacillus subtilis
  MIC: 4000 µg/mL (≈ 26500 µM)
[1]
  Activity: 500 µg/mL
Staphylococcus aureus [2]
  MIC: 2050 µg/mL (≈ 13500 µM)
Staphylococcus aureus [11]
  MIC: 2050 µg/mL (≈ 13500 µM)
Staphylococcus aureus [12]
  MIC: > 8000 µg/mL

## CCCCCCCCCOc1ccc(Cl)c(C(N)=O)c1F
[13]
  Activity: 0.5 µg/mL
Bacillus subtilis
  MIC: 0.5 µg/mL (≈ 1.58 µM)
[1]
  Activity: 0.25 µg/mL
Staphylococcus aureus [2]
  MIC: 1 µg/mL (≈ 3.17 µM)

## COc1cc(C(N)=O)ccc1F
Bacillus subtilis
  MIC: > 4000 µg/mL

## CCCCCCCCCOc1ccc(F)c(C(N)=O)c1F
[13]
  Activity: 0.25 µg/mL
Bacillus subtilis
  MIC: 0.125 µg/mL (≈ 0.418 µM)
[1]
  Activity: 0.125 µg/mL
Staphylococcus aureus [2]
  MIC: 0.5 µg/mL (≈ 1.67 µM)

## O=C(O)c1cn(C2CC2)c2cc(N3CCNCC3)c(F)cc2c1=O [CIPROFLOXACIN]
Staphylococcus aureus [2]
  MIC: 0.5 µg/mL (≈ 1.51 µM)

## CNC(=O)c1cccc(OC)c1
Bacillus subtilis
  MIC: > 4000 µg/mL

## CCCCCCCCCOc1ccc(F)c(C(N)=O)c1Cl
[13]
  Activity: 1 µg/mL
Bacillus subtilis
  MIC: 0.5 µg/mL (≈ 1.58 µM)
[1]
  Activity: 0.5 µg/mL
Staphylococcus aureus [2]
  MIC: 2 µg/mL (≈ 6.33 µM)

## COc1ccc(F)c(C(N)=O)c1F
Bacillus subtilis
  MIC: 512 µg/mL (≈ 2740 µM)
[1]
  Activity: 256 µg/mL
Staphylococcus aureus [2]
  MIC: 512 µg/mL (≈ 2740 µM)

## CCCCCCCOc1cccc(C(N)=O)c1
Bacillus subtilis
  MIC: 4 µg/mL (≈ 17 µM)
[1]
  Activity: 1.5 µg/mL
Staphylococcus aureus [2]
  MIC: 8 µg/mL (≈ 34 µM)

## CCCCOc1cccc(C(N)=O)c1
Bacillus subtilis
  MIC: 128 µg/mL (≈ 662 µM)
[1]
  Activity: 24 µg/mL
Staphylococcus aureus [2]
  MIC: 128 µg/mL (≈ 662 µM)

## COc1cccc(C(N)=O)c1[N+](=O)[O-]
Bacillus subtilis
  MIC: > 4000 µg/mL
